Source: US20250179439A1, “PRODUCTION METHOD FOR ORGANOID” (KEIO UNIVERSITY, priority 2022, published 2025)
Residues, ends and D or L forms follow the SMILES beside them. *: point of attachment. Cbz = O=C(OCc1ccccc1)*

Test system: CRC organoids
Assay: Drug screening assay (HTS) of GFP-labelled organoids in suspension culture, 384-well
Assay type: cell-based, human
Description: In the present study, a total of 23 organoid lineages were subjected to screening. Prior to screening, the organoids were labeled with a green fluorescent protein (GFP) using PB-CMV-MCS-EF1α-GFP-Puro PiggyBac (PB513B-1, available from System Biosciences, LLC.) and Super PiggyBac transposase (PB210-20, available from System Biosciences, LLC.) vectors.
The organoids were dissociated with TrypLE Express (available from Thermo Fisher Scientific, Inc.) and filtered using a cell strainer (pore size: 20 μm, available from Sysmex Corporation). Using a cell sorter (SH800, available from Sony Corporation), 800 to 1,500 cells were sorted into each well of a 384-well plate.
The organoids were treated with a test compound 24 hours or 96 hours after seeding. The organoids were grown for 6 to 8 days, and the colony area was measured based on the fluorescence of GFP using an IN Cell Analyzer 6000 confocal imaging system (available from GE Healthcare Life Sciences). In addition, bright field imaging and luminescence-based ATP measurement were carried out using Cell3iMager duos (available from SCREEN Holdings Co., Ltd.) and CellTiter-Glo cell viability assay (available from Promega Corporation).
The bright field image was analyzed using software integrated into the Cell3iMager. […]

Molecule | growth of organoids, CRC versus normal colon organoids (MANOVA of HTS drug responses) (CRC organoids compared with normal colon organoids) | cell death (maximum concentration of 1 μM, all screening plates (normal colon and CRC organoids), used to estimate the background signal) [%]
(+)-JQ1 | suppressed the growth of organoids in a cancer-specific manner | –
CC(C)C[C@@H](C=O)NC(=O)[C@H](CC(C)C)NC(=O)[C@H](CC(C)C)NC(=O)OCc1ccccc1 [MG-132] (Cbz-Leu-Leu-Leu-aldehyde) | – | 100
